Measured values taken from publication PMC10028969 (bioRxiv, 2023).

Experiments:
T. b. brucei Lister 427 [1] = experiment: Time-kill assays; type: cell-based; settings: Trypanosoma brucei, 12 h, read-out: parasite viability
[2] = HEK-293 counter-screen assay; type: cell-based; settings: human, HEK-293 cells
T. b. brucei Lister 427 [3] = experiment: SYBR Green viability assay with T. brucei; type: cell-based; settings: Trypanosoma brucei, 72 h, read-out: T. b. brucei Lister 427 EC50 (nM) ± SD
T. b. brucei Lister 427 [4] = experiment: Mouse model of T. brucei infection; type: in vivo, Trypanosoma brucei brucei

## N=C(N)c1ccc(OCCCCCOc2ccc(C(=N)N)cc2)cc1 [Pentamidine, pentamidine]
T. b. brucei Lister 427 [1]
  viability at 4 µM: 52.8%
[2]
  CC50 at 48 h: > 4000 nM
T. b. brucei Lister 427 [3]
  EC50: 69.6 ± 35.5 nM
T. b. brucei Lister 427 [4]; 4 mg/kg i.p. on day 2, end of the study, without parasite recrudescence
  mouse survival: ≥ 15 day post-infection
T. b. brucei Lister 427 [4]; single i.p. dose 4 mg/kg on day 2 post-infection, BALB/c female mice
  parasitemia within 24 h of administration: < 2.5 × 10^5 parasites/ml
